Source: ChEMBL document CHEMBL1157269, “Antineoplastic agents. 551. Isolation and structures of bauhiniastatins 1-4 from Bauhinia purpurea” (2006)
Values after ≈ are worked out from the molar mass of the structure shown.

Legend:
Type in all cases: functional
SF-268 = experiment: Growth inhibition of human SF268 cells
BXPC-3 = experiment: Growth inhibition of human BXPC3 cells
P388 = experiment: Growth inhibition of mouse P388 cells
MCF7 = experiment: Growth inhibition of human MCF7 cells
KM-20L2 = experiment: Growth inhibition of human KM20L2 cells
NCI-H460 = experiment: Growth inhibition of human NCI-H460 cells
DU-145 = experiment: Growth inhibition of human DU145 cells

COc1c(C)c(=O)c2oc3cccc(O)c3ccc=2c1=O [BAUHINIASTATIN 1]
GI50 (SF-268): 2.4 µg/mL (≈ 8.44 µM)
GI50 (BXPC-3): 7 µg/mL (≈ 24.6 µM)
GI50 (P388): 0.65 µg/mL (≈ 2.29 µM)
GI50 (MCF7): 4.1 µg/mL (≈ 14.4 µM)
GI50 (KM-20L2): > 10 µg/mL
GI50 (NCI-H460): 6.6 µg/mL (≈ 23.2 µM)
GI50 (DU-145): > 10 µg/mL

COc1c(C)c(O)c2c(c1OC)C=Cc1c(O)cccc1O2 [BAUHINIASTATIN 2]
GI50 (SF-268): 3.2 µg/mL (≈ 10.7 µM)
GI50 (BXPC-3): 3.8 µg/mL (≈ 12.7 µM)
GI50 (P388): 23.2 µg/mL (≈ 77.3 µM)
GI50 (MCF7): 3.1 µg/mL (≈ 10.3 µM)
GI50 (KM-20L2): > 10 µg/mL
GI50 (NCI-H460): 3.5 µg/mL (≈ 11.7 µM)
GI50 (DU-145): 3.8 µg/mL (≈ 12.7 µM)

COc1cc2c(c(O)c1C)Oc1c(O)ccc(OC)c1C=C2 [BAUHINIASTATIN 3]
GI50 (SF-268): 5.8 µg/mL (≈ 19.3 µM)
GI50 (BXPC-3): 6.6 µg/mL (≈ 22 µM)
GI50 (P388): 15.7 µg/mL (≈ 52.3 µM)
GI50 (MCF7): 3.2 µg/mL (≈ 10.7 µM)
GI50 (KM-20L2): > 10 µg/mL
GI50 (NCI-H460): 6.1 µg/mL (≈ 20.3 µM)
GI50 (DU-145): 5.8 µg/mL (≈ 19.3 µM)

COc1c(C)c(O)cc2c1Oc1cccc(O)c1C=C2 [BAUHINIASTATIN 4]
GI50 (P388): 61.5 µg/mL (≈ 228 µM)

O=c1[nH]cc(F)c(=O)[nH]1 [FLUOROURACIL]
GI50 (P388): 0.073 µg/mL (≈ 0.561 µM)

COc1cc2c(c(O)c1C)Oc1cccc(O)c1C=C2 [PACHARIN]
GI50 (SF-268): 3.1 µg/mL (≈ 11.5 µM)
GI50 (BXPC-3): 4.3 µg/mL (≈ 15.9 µM)
GI50 (P388): 15.5 µg/mL (≈ 57.3 µM)
GI50 (MCF7): 2.3 µg/mL (≈ 8.51 µM)
GI50 (KM-20L2): > 10 µg/mL
GI50 (NCI-H460): 4.2 µg/mL (≈ 15.5 µM)
GI50 (DU-145): 3.3 µg/mL (≈ 12.2 µM)
